Tested on: human adipose tissue-derived stem cells
Test: Culture of stem cells using 25 kGy gamma-irradiated FBS with vitamin C pre- or post-treatment (Example 3): cell number, doubling time
Assay type: cell-based
Conditions: for Cell No. / Doubling time: Ad-MSC (P4), 4 days of culture
Protocol: After 4 days of culture, the cell proliferation rate and doubling time of the cells were examined. The viability of the cells was examined with a microscope and a hemocytometer, and the doubling time was calculated using the following equation: Doubling Time=duration×log(2)/log(final concentration)−log(initial concentration). [Equation 1] Fetal bovine serum (FBS) was irradiated with 25 kGy of gamma radiation, thereby preparing gamma-irradiated FBS. Vitamin C (ascorbic acid; L-Ascorbic Acid 2-phosphate) was added to the FBS which was then irradiated with 25 kGy of gamma irradiation, thereby preparing gamma-irradiated FBS pretreated with vitamin C. The vitamin C was added to the FBS at a concentration of 0.1% or 1%. Then, the human adipose tissue-derived stem cells at passage 3, isolated in Example 1, were thawed and inoculated into T75 flasks at a concentration of 0.5×10^6 cells/T75 flask, and the inoculated cells were cultured with AMSC+ culture medium (R-Bio Co., Ltd.) containing the prepared gamma-irradiated FBS or gamma-irradiated FBS pretreated with vitamin C at a concentration of 5% in a CO2 incubator at 37° C. for 2 days. After 2 days of culture, the medium was removed and replaced with AMSC+ culture medium containing 5% gamma-irradiated FBS (a negative control group), medium obtained by adding vitamin C to AMSC+ culture medium containing 5% gamma-irradiated FBS (a vitamin C post-treatment test group), or AMSC+ culture medium containing 5% gamma-irradiated FBS pretreated with vitamin C (a vitamin C pre-treatment test group). Vitamin C was added to the culture medium or FBS at a concentration of 0.1 or 1%. After 4 days of culture, the cell proliferation rate and doubling time of the cells were examined in the same manner as described in Example 2 above. A positive control group was also prepared as described in Example 2 above.

[1] = 0.1% AA2P post-treatment + 25 KGy
[2] = 0.1% AA2P pre-treatment + 25 KGy
[3] = 1% AA2P post-treatment + 25 KGy

With `O=C1O[C@H]([C@@H](O)CO)C(O)=C1OP(=O)(O)O` [AA2P, L-Ascorbic Acid 2-phosphate] the “Cell No.” value [1] was 10.6 ×10^6 cells, the Doubling time [1] was 21 h and the “Cell No.” value [2] was 10.2 ×10^6 cells. The Doubling time [2] was 21 h, the “Cell No.” value [3] was 14.0 ×10^6 cells and the Doubling time [3] was 19 h. For the same molecule, the “Cell No.” value (1% AA2P pre-treatment + 25 KGy) was 10.0 ×10^6 cells, the Doubling time (1% AA2P pre-treatment + 25 KGy) was 21 h and the “cell number and doubling time versus positive control group” value (vitamin C post-treatment and pre-treatment test groups, 25 kGy FBS, 4 days) was “increased to the levels of the positive control group”. For the same molecule, the “microscope observation of stem cells” value (vitamin C post-treatment and pre-treatment test groups, 25 kGy FBS, day 4 (FIG. 3)) was “levels similar to those of the positive control group”.
